Test results published in the C3SDB collision cross section collection.

Conditions: instrument: TW, calibrated with polyalanine and drug standards

SMILES | collision cross section (N2) ([M+H]+) | also measured
Nc1ccc(C(=O)NCC(=O)O)cc1 [AMINOHIPPURIC ACID] | 155.3 Å² | –
Nc1nccs1 [AMINOTHIAZOLE] | 117.2 Å² | –
Clc1ccc2c(c1)C(N1CCNCC1)=Nc1ccccc1O2 [AMOXAPINE] | 171.2 Å² | –
CC1(C)S[C@@H]2[C@H](NC(=O)[C@H](N)c3ccc(O)cc3)C(=O)N2[C@H]1C(=O)O [AMOXICILLIN] | 187.4 Å² | –
COc1cc(NS(C)(=O)=O)ccc1Nc1c2ccccc2nc2ccccc12 [AMSACRINE] | 193.1 Å² | –
COc1ccc([C@@H](C)C(=O)c2ccc(O)cc2O)cc1 [ANGOLENSIN (R)] | 162 Å² | –
COc1ccc(C(=O)N2CCCC2=O)cc1 [ANIRACETAM] | 146.6 Å² | –
O=C1c2c(O)cccc2Cc2cccc(O)c21 [ANTHRALIN] | 142.6 Å² | –
COc1cc(O)cc(OC)c1OC [ANTIAROL] | 133.5 Å² | –
Cc1cc(=O)n(-c2ccccc2)n1C [ANTIPYRINE] | 137.8 Å² | –
COc1cc2c(cc1OC)-c1c(oc3cc(O)cc(O)c3c1=O)CO2 [APOTOXICAROL] | 173.8 Å² | –
OC[C@H]1O[C@@H](Oc2ccc(O)cc2)[C@H](O)[C@@H](O)[C@@H]1O [ARBUTIN] | – | collision cross section (N2) ([M+Na]+): 164.4 Å²
COc1cc(OC)c(OC)cc1C=O [ASARYLALDEHYDE] | 138.3 Å² | –
C[C@H]1[C@H](C)CC[C@]2(C(=O)O)CC[C@]3(C)C(=CC[C@@H]4[C@@]5(C)C[C@@H](O)[C@H](O)[C@@](C)(CO)[C@@H]5CC[C@]43C)[C@H]12 [ASIATIC ACID] | – | collision cross section (N2) ([M+Na]+): 233.5 Å²
CC(C)NCC(O)COc1ccc(CC(N)=O)cc1 (stereo unspecified) [ATENOLOL] | 159 Å² | –
O=C(O)C1=CC(=C(c2ccc(O)c(C(=O)O)c2)c2ccc(O)c(C(=O)O)c2)C=CC1=O [AURIN TRICARBOXYLIC ACID] | 197.6 Å² | –
CC[C@H](C)[C@H]1O[C@]2(C=C[C@@H]1C)C[C@@H]1C[C@@H](C/C=C(\C)[C@@H](O[C@H]3C[C@H](OC)[C@@H](O[C@H]4C[C@H](OC)[C@@H](O)[C@H](C)O4)[C@H](C)O3)[C@@H](C)/C=C/C=C3\CO[C@@H]4[C@H](O)C(C)=C[C@@H](C(=O)O1)[C@]34O)O2 [Abamectin B1A] | – | collision cross section (N2) ([M+Na]+): 290.5 Å²
C/C(=C(\CCOP(=O)(O)O)SC(=O)c1ccccc1)N(C=O)Cc1cnc(C)nc1N [BENFOTIAMINE] | 192.7 Å² | –
CCCCCCCCCCCCCC[N+](C)(C)Cc1ccccc1 [BENZALKONIUM CHLORIDE C14] | – | collision cross section (N2) ([M]+): 205.7 Å²
O=C(Nc1ccc(C(=O)O)c(O)c1)c1ccccc1 [BENZOYLPAS] | 156.3 Å² | –
COc1c(O)cc2c(c1O)[C@@H]1O[C@H](CO)[C@@H](O)[C@H](O)[C@H]1OC2=O [BERGENIN] | 168.3 Å² | –
CCCCC(=O)O[C@]1(C(=O)CO)[C@@H](C)C[C@H]2[C@@H]3CCC4=CC(=O)C=C[C@]4(C)[C@@]3(F)[C@@H](O)C[C@@]21C [BETAMETHASONE VALERATE] | 214 Å² | –
C[C@H]1C[C@H]2[C@@H]3CCC4=CC(=O)C=C[C@]4(C)[C@@]3(F)[C@@H](O)C[C@]2(C)[C@@]1(O)C(=O)CO [BETAMETHASONE] | 186.7 Å² | –

SMILES | collision cross section (N2) ([M+H]+) | also measured
O=C(O)CCNC(=O)c1ccccc1 [BETAMIPRON] | 138.7 Å² | –
CC(C)(Oc1ccc(CCNC(=O)c2ccc(Cl)cc2)cc1)C(=O)O [BEZAFIBRATE] | 177.3 Å² | –
COc1ccc(-c2coc3cc(O)cc(O)c3c2=O)cc1 [BIOCHANIN A] | 160.9 Å² | –
OC(CCN1CCCCC1)(c1ccccc1)C1CC2C=CC1C2 (stereo unspecified) [BIPERIDEN] | 175.7 Å² | –
CC(C)(c1ccc(O)cc1)c1ccc(O)cc1 [BISPHENOL A] | 147.1 Å² | –
CC1(C)CC2C1CC[C@]1(CBr)CCC3C(CC(=O)O)C(=O)O[C@@]32C1 (stereo partly specified) [BROMO-3-HYDROXY-4-(SUCCIN-2-YL)-CARYOLANE gamma-LACTONE] | 183.4 Å² | –
COc1cc2c(cc1OC)[C@@]13CCN4CC5=CCO[C@H]6CC(=O)N2[C@H]1[C@H]6[C@H]5C[C@H]43 [BRUCINE] | 190.9 Å² | –
CCOc1ccc(NC(=O)CC(C)O)cc1 (stereo unspecified) [BUCETIN] | 152.5 Å² | –
CCCC(=O)Nc1ncnc2c1ncn2[C@@H]1O[C@@H]2COP(=O)(O)O[C@H]2[C@H]1OC(=O)CCC [BUCLADESINE] | 215.3 Å² | –
CCCCNc1cc(C(=O)O)cc(S(N)(=O)=O)c1Oc1ccccc1 [BUMETANIDE] | 185.1 Å² | –
CC(NC(C)(C)C)C(=O)c1cccc(Cl)c1 (stereo unspecified) [BUPROPION] | 157.5 Å² | –
CCCCN(CCCC)CCCOC(=O)c1ccc(N)cc1 [BUTACAINE] | 179 Å² | –
Clc1ccc(CCC(Cn2ccnc2)Sc2c(Cl)cccc2Cl)cc1 (stereo unspecified) [BUTOCONAZOLE] | 186.5 Å² | –
Cn1c(=O)c2c(ncn2C)n(C)c1=O [CAFFEINE] | 136.9 Å² | –
CCOc1nc2cccc(C(=O)OC(C)OC(=O)OC3CCCCC3)c2n1Cc1ccc(-c2ccccc2-c2nn[nH]n2)cc1 (stereo unspecified) [CANDESARTAN CILEXTIL] | 241.5 Å² | –
C[C@]12CCC(=O)C=C1C=C[C@@H]1[C@@H]2CC[C@@]2(C)[C@H]1CC[C@@]21CCC(=O)O1 [CANRENONE] | 183 Å² | –
COC(=O)C[C@H]1C(C)(C)C(=O)[C@@H]2CC3C4=CC(=O)O[C@@H](c5ccoc5)[C@]4(C)CCC3[C@@]1(C)C2=O (stereo partly specified) [CARAPIN] | 206.1 Å² | –
COC(=O)N=N/C=C1\C=[N+]([O-])c2ccccc2N1O [CARBADOX] | 153.9 Å² | –
CCCC(C)(COC(N)=O)COC(=O)NC(C)C (stereo unspecified) [CARISOPRODOL] | 149.1 Å² | –
COc1ccccc1OCCNCC(O)COc1cccc2[nH]c3ccccc3c12 (stereo unspecified) [CARVEDILOL] | 189.1 Å² | –
COc1cc(OC)c2c(c1)O[C@H](c1ccc(OC)c(OC)c1)[C@@H](O)C2 [CATECHIN TETRAMETHYLETHER] | 174.4 Å² | –
C[C@@H]1CC[C@H]2C(C)(C)[C@H]3C[C@@]12CC[C@@]3(C)O [CEDROL] | 145.9 Å² | –
CC1=C(O)C(=O)C=C2C1=CC=C1[C@@]2(C)CC[C@@]2(C)[C@@H]3C[C@](C)(C(=O)O)CC[C@]3(C)CC[C@]12C [CELASTROL] | 205.6 Å² | –
